Test results from the NIST ThermoML archive (doi:10.1021/je700236c).
Several values for one entry are separate records, joined by “and”; a condition that tells them apart may be missing. Equal values may be shown once.

Settings: Gas, Buoyancy - hydrostatic balance with magnetic suspension - two sinkers

CC(F)(F)F [1,1,1-trifluoroethane]
Settings | mass density
283.15 K, 203.6 kPa | 7.588 kg/m3 and 7.589 kg/m3
283.15 K, 399.9 kPa | 15.605 kg/m3
283.15 K, 505.8 kPa | 20.278 kg/m3 and 20.282 kg/m3
283.15 K, 605 kPa | 24.935 kg/m3 and 24.932 kg/m3
283.15 K, 651.6 kPa | 27.227 kg/m3
283.15 K, 651.7 kPa | 27.238 kg/m3
283.15 K, 700.8 kPa | 29.729 kg/m3 and 29.728 kg/m3
283.15 K, 750.8 kPa | 32.363 kg/m3 and 32.361 kg/m3
283.15 K, 781.5 kPa | 34.03 kg/m3
283.15 K, 781.6 kPa | 34.039 kg/m3
283.15 K, 801.7 kPa | 35.15 kg/m3
283.15 K, 801.8 kPa | 35.164 kg/m3
283.15 K, 820.2 kPa | 36.196 kg/m3
283.15 K, 820.3 kPa | 36.205 kg/m3
293.15 K, 201.7 kPa | 7.219 kg/m3
293.15 K, 201.8 kPa | 7.222 kg/m3
293.15 K, 400.3 kPa | 14.916 kg/m3 and 14.915 kg/m3
293.15 K, 599.3 kPa | 23.356 kg/m3 and 23.36 kg/m3
293.15 K, 701.3 kPa | 28.031 kg/m3 and 28.028 kg/m3
293.15 K, 798.2 kPa | 32.729 kg/m3 and 32.732 kg/m3
293.15 K, 898.7 kPa | 37.925 kg/m3 and 37.921 kg/m3
293.15 K, 951 kPa | 40.774 kg/m3
293.15 K, 999.6 kPa | 43.532 kg/m3
293.15 K, 1030.9 kPa | 45.365 kg/m3 and 45.355 kg/m3
293.15 K, 1048.7 kPa | 46.429 kg/m3
293.15 K, 1048.8 kPa | 46.429 kg/m3
293.15 K, 1071 kPa | 47.788 kg/m3
293.15 K, 1071.1 kPa | 47.784 kg/m3
293.15 K, 1089 kPa | 48.896 kg/m3 and 48.901 kg/m3
303.15 K, 200 kPa | 6.895 kg/m3 and 6.903 kg/m3
303.15 K, 400.9 kPa | 14.305 kg/m3 and 14.313 kg/m3
303.15 K, 600.3 kPa | 22.265 kg/m3
303.15 K, 600.4 kPa | 22.265 kg/m3
303.15 K, 801.6 kPa | 31.034 kg/m3 and 31.031 kg/m3
303.15 K, 1001 kPa | 40.662 kg/m3 and 40.666 kg/m3
303.15 K, 1099.9 kPa | 45.879 kg/m3 and 45.88 kg/m3
303.15 K, 1197.3 kPa | 51.364 kg/m3 and 51.363 kg/m3
303.15 K, 1249.2 kPa | 54.458 kg/m3
303.15 K, 1299.5 kPa | 57.578 kg/m3 and 57.581 kg/m3
303.15 K, 1340.6 kPa | 60.231 kg/m3 and 60.229 kg/m3
303.15 K, 1369.8 kPa | 62.181 kg/m3 and 62.183 kg/m3
303.15 K, 1401.5 kPa | 64.363 kg/m3 and 64.364 kg/m3
303.15 K, 1423.7 kPa | 65.925 kg/m3
303.15 K, 1423.9 kPa | 65.952 kg/m3
313.15 K, 201.5 kPa | 6.696 kg/m3
313.15 K, 201.8 kPa | 6.718 kg/m3
313.15 K, 205.1 kPa | 6.831 kg/m3 and 6.828 kg/m3
313.15 K, 206.2 kPa | 6.869 kg/m3
313.15 K, 401.6 kPa | 13.776 kg/m3
313.15 K, 401.7 kPa | 13.775 kg/m3
313.15 K, 600.3 kPa | 21.275 kg/m3 and 21.282 kg/m3
313.15 K, 800.3 kPa | 29.41 kg/m3 and 29.413 kg/m3
313.15 K, 999.1 kPa | 38.197 kg/m3 and 38.204 kg/m3
313.15 K, 1200.3 kPa | 47.988 kg/m3 and 48.002 kg/m3
313.15 K, 1400.2 kPa | 58.893 kg/m3 and 58.909 kg/m3
313.15 K, 1500.8 kPa | 64.963 kg/m3 and 64.977 kg/m3
313.15 K, 1540.9 kPa | 67.443 kg/m3 and 67.442 kg/m3
313.15 K, 1598 kPa | 71.29 kg/m3
313.15 K, 1598.1 kPa | 71.312 kg/m3
313.15 K, 1648.3 kPa | 74.652 kg/m3 and 74.647 kg/m3
313.15 K, 1701.3 kPa | 78.498 kg/m3 and 78.51 kg/m3
313.15 K, 1740.8 kPa | 81.517 kg/m3 and 81.508 kg/m3
313.15 K, 1771.1 kPa | 83.916 kg/m3 and 83.908 kg/m3
313.15 K, 1793.2 kPa | 85.73 kg/m3
313.15 K, 1794.4 kPa | 85.811 kg/m3
